Where “and” joins values, the source holds several entries; their conditions need not be identical. Identical values can stand only once. Like-named read-outs stand apart in the source and are kept apart here.
Key:
[1] = cited from earlier work
Source text: Supplement table1.docx, table 1: TABLE S1 Pharmacokinetic Study of teicoplanin in pediatric patients. | column: Clearance (CL) , L/h; Volume of distribution (Vd) , L || Teicoplanin is a glycopeptide antibiotic with activity against methicillin-resistant Staphylococcus aureus (MRSA) ([Traina and Bonati, 1984]). […] Teicoplanin trough concentration (C min) is closely associated with clinical efficacy. […] Due to widespread systemic inflammation, patients may often have an ARC in PICU patients ([Van Der Heggen et al., 2019]), and increased volume ... || (+ 2 further places)

[2] = Population pharmacokinetic analysis (NONMEM, one-compartment model) in hospitalized children; format: in vivo, human
Source text: This was a retrospective PK study performed in two hospitals in China according to the principles of the current Declaration of Helsinki and Good Clinical Practice (Hospital 1: the First Affiliated Hospital of Xi’an Jiaotong University; Hospital 2: the Affiliated Children Hospital of Xi’an Jiaotong University). The protocol was approved by the institutional review board of each study site (No.XJTU1AF2017LSK-28). All patients aged 1 month to 18 years old receiving teicoplanin (Targocid, Sanofi-Aventis) for proven or suspected MRSA infection were selected for the study over 33-month period (March 2017 and November 2019). Children were excluded if a complete teicoplanin dosing history or precise sampling time was not available. The demographic variables with potential impact on the PK of teicoplanin and details of teicoplanin administration (dose and infusion start and stop times) were extracted from medical records retrospectively by a trained research assistant. If serum creatinine (SCr) readings were unavailable around the teicoplanin dosing (±48 h), the closest available SCr reading would be imputed. Creatinine clearance (CLcr) was estimated by Cockcroft formula: CLcr = (140 – age (years)) ×weight (WT, kg) × 0.85 (if female)/0.818 × SCr (μmol/L), instead of Schwartz formula due to the lack of height data in most children ([Cockcroft and Gault, 1976]).
(§1) Teicoplanin was administered at three loading doses of 10 mg/kg every 12 h, followed by 6–10 mg/kg/day. Types of blood samples included therapeutic drug monitoring (TDM) sample, and opportunistic sample. TDM was typically performed within 30 min preceding a dose at steady state. Samples were centrifuged for 10 min. Serum was separated and stored at −80°C until analysis. The laboratory staff were allowed to identify the opportunistic samples with the timings of blood taking documented and store them at −80°C after routine testing and pretreatment. Teicoplanin concentrations were determined with a validated high performance liquid chromatography method. The calibration curve ranged from 2.5 to 100 mg/L, and lower limit of […] (LLOQ) of this assay was 2.5 mg/L. Intra- and inter-day precision values were 3.5 and 6.2%, respectively ([Wang et al., 2015]). For the samples below the LLOQ, concentration values were recorded as LLOQ of 2.5 mg/L.
Population pharmacokinetic (PPK) analysis was performed using NONMEM (version 7.2). A one-compartment PK model with first-order elimination (ADVAN1 TRANS2) was implemented. The concentration-time data for teicoplanin were modeled by first-order conditional estimation with interaction (FOCE-I). We evaluated inter-individual variability using an exponential error model. Residual variability was selected from additive, proportional, exponential, and combined additive and proportional error models according to acceptable standard errors, physiological plausibility of population clearance (CL) and distribution volume (Vd) estimates, improvement of the objective function value (OFV) and good visual representation of standard diagnostic plots. Demographic characteristics (age, gender, WT), renal functions (blood urea nitrogen, SCr, CLcr), biochemical data (total protein, albumin), status of disease (sepsis, endocarditis), and nephrotoxic medications received during teicoplanin therapy were investigated as potential variables on PK parameters. CLcr was calculated by the Cockcroft formula ([Cockcroft and Gault, 1976]). […]

[3] = Serum teicoplanin concentrations (TDM and opportunistic samples, HPLC); format: in vivo, human; conditions: SD
Protocol: as §1

[4] = ref Svetitsky et al., 2009; cited from earlier work
Protocol: There are large differences in the optimal dosage regimens provided by the two methods (Table 3). Taken together, optimal dosage regimens based on the C min targets in our study are recommended, which are three loading doses of 10 mg/kg every 12 h, followed by a maintenance dose of 12 mg/kg/day for C min of > 10 mg/L and three loading doses of 13 mg/kg every 12 h, followed by a maintenance dose of 16 mg/kg/day for C min of > 15 mg/L. The reasons are as follows: 1) The maintenance dose based on the C min targets are higher than that based PK/PD targets. In other words, maintenance dose based on ...

albumin = conditions: ref Lukas et al., 2004; cited from earlier work
Source text: (§2) Teicoplanin is a glycopeptide antibiotic with activity against methicillin-resistant Staphylococcus aureus (MRSA) ([Traina and Bonati, 1984]). […] Teicoplanin trough concentration (C min) is closely associated with clinical efficacy. For the moderate (such as respiratory tract infections, urinary tract infections and skin and soft-tissue infections) and severe infection (such as sepsis, infective endocarditis, bone an ...

[5] = ref Lukas et al., 2004; cited from earlier work
Source text: as §2

[6] = cited from earlier work; remark: listed apart in the source
Source text: Teicoplanin is a glycopeptide antibiotic with activity against methicillin-resistant Staphylococcus aureus (MRSA) ([Traina and Bonati, 1984]). […] Teicoplanin trough concentration (C min) is closely associated with clinical efficacy. For the moderate (such as respiratory tract infections, urinary tract infections and skin and soft-tissue infections) and severe infection (such as sepsis, infective endocarditis, bone an ... || There are large differences in the optimal dosage regimens provided by the two methods (Table 3). Taken together, optimal dosage regimens based on the C min targets in our study are recommended, which are three loading doses of 10 mg/kg every 12 h, followed by a maintenance dose of 12 mg/kg/day for C min of > 10 mg/L and three loading doses of 13 mg/kg every 12 h, followed by a maintenance dose of 16 mg/kg/day for C min of > 15 mg/L. The reasons are as follows: 1) The maintenance dose based on the C min targets are higher than that based PK/PD targets. In other words, maintenance dose based on ...

[7] = Nephrotoxicity and adverse events in patients; format: in vivo, human; conditions: all after the last sample was collected
[8] = most recent study in Chinese children, ref Gao et al., 2020

Teicoplanin
Mean C min ([1]; 24 h after the first dose, ref Sanchez et al., 1999): 4800 ng/mL | Mean C min ([1]; 72 h after the first dose, ref Sanchez et al., 1999): 5700 ng/mL | Mean C min ([1]; 168 h after the first dose, ref Sanchez et al., 1999): 5900 ng/mL | CL ([1]; PICU Caucasians, ref Aarons et al., 1998, Lukas et al., 2004, Ramos-Martin et al., 2014, Reed et al., 1997, Sanchez et al., 1999, Terragna et al., 1988, Zhao et al., 2015): 0.5 to 1.23 mL/min/kg | Volume of distribution (Vd) ([1]; children, n=39, England, FPIA, ref Ramos-Martin (2014)): 4.138 L | Q ([1]; children, n=136, China, population PK, ref Gao (2020)): 0.23 L/h | Vd in other studies ([1]; children, ref Supplementary Table S1): 0.2 to 1.02 L/kg | CL estimate [1, 8]: 0.217 mL/min/kg | Vd [1, 8]: 1.85 L/kg | CL ([1]; non-PICU Caucasians, ref Aarons et al., 1998, Lukas et al., 2004, Ramos-Martin et al., 2014, Reed et al., 1997, Sanchez et al., 1999, Terragna et al., 1988, Zhao et al., 2015): 0.25 to 0.4 mL/min/kg | Proportion of children failing to achieve the target C min ([1]; previous clinical studies, ref Sanchez et al., 1999, Strenger et al., 2013, Zhao et al., 2015): 48–89% | CL in children ([1]; ref Aarons et al., 1998, Lukas et al., 2004, Ramos-Martin et al., 2014, Reed et al., 1997, Sanchez et al., 1999, Terragna et al., 1988, Zhao et al., 2015): 0.25 to 1.23 mL/min/kg | Overall mean C min ([1]; ref Lukas et al., 2004): 9000 ng/mL | Vd ([1]; ref Ramos-Martin et al., 2014): 0.2 L/kg | C min achieved with current maintenance doses in another study ([1]; ref Sanchez et al., 1999): 4800 to 5900 ng/mL | CL ([1]; two studies in patients admitted to the PICU, ref Reed et al., 1997, Sanchez et al., 1999): 0.75 mL/min/kg and 0.5 mL/min/kg | Vd, mean of 1,000 bootstrap replicates ([2]; bootstrap): 1.77 L | CL, mean of 1,000 bootstrap replicates ([2]; bootstrap success rate 96.5%): 0.0718 L/h | Vd, final model estimate ([2]; population PK, one-compartment, Vd=1.39×θ3(WT/16.71)): 1.39 L | Estimate of Vd per kg ([2]; this study): 0.15 L/kg | Typical population value of CL per kg ([2]; this study): 0.233 mL/min/kg | Teicoplanin concentration, mean ± standard deviation ([3]; Hospital 1, n=13, 21 samplings): 9.3 ± 10.1 mg/L | Teicoplanin concentration, mean ± standard deviation ([3]; Hospital 2, n=212, 304 samplings): 9.1 ± 8.9 mg/L | Teicoplanin concentration, mean ± standard deviation ([3]; model evaluation data, n = 66, 89 samplings): 9.6 ± 5.6 mg/L | Teicoplanin concentration, mean ± standard deviation ([3]; model-building data, n = 159, 236 samplings, HPLC, LLOQ 2.5 mg/L): 8.6 ± 12.1 mg/L | Adverse events compared with vancomycin [4]: lower adverse event compared with vancomycin | Bound to albumin in plasma (albumin): > 90% | Hydrophilicity of the marketed drug [5]: hydrophilic | Elimination half-life compared with vancomycin ([6]; ref Kasai et al., 2018): longer elimination half-life than vancomycin | Linearity of PK ([6]; ref Rowland, 1990): linear PK | CL in adults ([6]; seven out of ten of the CL reported, ref Byrne et al., 2018, Cazaubon et al., 2017, Kasai et al., Lamont et al., 2005, Soy et al., 2006, Yamada et al., 2012, Yu et al., 1995): lower than 0.01 L/h/kg | Children who developed nephrotoxicity during hospitalization [7]: Nine
